Measurements published in patent US12187742B2 (XRAD Therapeutics, Inc., priority 2018, dated 2025).
Counter-ions that a name gives are not always drawn.

Molecular target: ATM (Homo sapiens (Human), UniProt Q13315)
Assay: ATM in Cell Western Assay (pKAP1 in etoposide-treated MCF-7 cells)
Format: cell-based
Details: MCF-7 cells, etoposide 100 μM, 1 hr, pKAP1 readout
Protocol: Assay of Compounds ATM and DNA-PK Inhibition
ATM in Cell Western Assay:
Next day, add corresponding concentration of compounds using pin tool (Echo 550), the final top concentration is 1 μM, 3-fold series dilution, total 10 doses. Then add etoposide (Sigma, #E1383) to a final concentration of 100 μM. Incubate at 37° C. for 1 hr. Fix cells by adding 25 μL of fixing solution (8% paraformaldehyde) for 20 minutes at ambient temperature. Permeabilize cells for 5 washes with 1×PBS (phosphate buffered saline) containing 0.1% Triton X-100; each wash is for 5 minutes. […] The next day, wash the plate 5 times with 1×PBST (1×PBS containing 0.1% Tween-20). […] Wash the cells for 5 times with 1×PBST (1×PBS containing 0.1% Tween-20) at ambient temperature, using gentle shaking in the dark. After the last wash
remove wash solution, turn plate upside down onto a thin paper towel and centrifuge at 1000 rpm for 1 min to absorb all wash buffer. Clean the bottom of plate with moist lint free paper. Scan plate immediately using ODYSSEY CLx (LI-COR) for the best results.

Chain of ATM (Q13315 whole entry): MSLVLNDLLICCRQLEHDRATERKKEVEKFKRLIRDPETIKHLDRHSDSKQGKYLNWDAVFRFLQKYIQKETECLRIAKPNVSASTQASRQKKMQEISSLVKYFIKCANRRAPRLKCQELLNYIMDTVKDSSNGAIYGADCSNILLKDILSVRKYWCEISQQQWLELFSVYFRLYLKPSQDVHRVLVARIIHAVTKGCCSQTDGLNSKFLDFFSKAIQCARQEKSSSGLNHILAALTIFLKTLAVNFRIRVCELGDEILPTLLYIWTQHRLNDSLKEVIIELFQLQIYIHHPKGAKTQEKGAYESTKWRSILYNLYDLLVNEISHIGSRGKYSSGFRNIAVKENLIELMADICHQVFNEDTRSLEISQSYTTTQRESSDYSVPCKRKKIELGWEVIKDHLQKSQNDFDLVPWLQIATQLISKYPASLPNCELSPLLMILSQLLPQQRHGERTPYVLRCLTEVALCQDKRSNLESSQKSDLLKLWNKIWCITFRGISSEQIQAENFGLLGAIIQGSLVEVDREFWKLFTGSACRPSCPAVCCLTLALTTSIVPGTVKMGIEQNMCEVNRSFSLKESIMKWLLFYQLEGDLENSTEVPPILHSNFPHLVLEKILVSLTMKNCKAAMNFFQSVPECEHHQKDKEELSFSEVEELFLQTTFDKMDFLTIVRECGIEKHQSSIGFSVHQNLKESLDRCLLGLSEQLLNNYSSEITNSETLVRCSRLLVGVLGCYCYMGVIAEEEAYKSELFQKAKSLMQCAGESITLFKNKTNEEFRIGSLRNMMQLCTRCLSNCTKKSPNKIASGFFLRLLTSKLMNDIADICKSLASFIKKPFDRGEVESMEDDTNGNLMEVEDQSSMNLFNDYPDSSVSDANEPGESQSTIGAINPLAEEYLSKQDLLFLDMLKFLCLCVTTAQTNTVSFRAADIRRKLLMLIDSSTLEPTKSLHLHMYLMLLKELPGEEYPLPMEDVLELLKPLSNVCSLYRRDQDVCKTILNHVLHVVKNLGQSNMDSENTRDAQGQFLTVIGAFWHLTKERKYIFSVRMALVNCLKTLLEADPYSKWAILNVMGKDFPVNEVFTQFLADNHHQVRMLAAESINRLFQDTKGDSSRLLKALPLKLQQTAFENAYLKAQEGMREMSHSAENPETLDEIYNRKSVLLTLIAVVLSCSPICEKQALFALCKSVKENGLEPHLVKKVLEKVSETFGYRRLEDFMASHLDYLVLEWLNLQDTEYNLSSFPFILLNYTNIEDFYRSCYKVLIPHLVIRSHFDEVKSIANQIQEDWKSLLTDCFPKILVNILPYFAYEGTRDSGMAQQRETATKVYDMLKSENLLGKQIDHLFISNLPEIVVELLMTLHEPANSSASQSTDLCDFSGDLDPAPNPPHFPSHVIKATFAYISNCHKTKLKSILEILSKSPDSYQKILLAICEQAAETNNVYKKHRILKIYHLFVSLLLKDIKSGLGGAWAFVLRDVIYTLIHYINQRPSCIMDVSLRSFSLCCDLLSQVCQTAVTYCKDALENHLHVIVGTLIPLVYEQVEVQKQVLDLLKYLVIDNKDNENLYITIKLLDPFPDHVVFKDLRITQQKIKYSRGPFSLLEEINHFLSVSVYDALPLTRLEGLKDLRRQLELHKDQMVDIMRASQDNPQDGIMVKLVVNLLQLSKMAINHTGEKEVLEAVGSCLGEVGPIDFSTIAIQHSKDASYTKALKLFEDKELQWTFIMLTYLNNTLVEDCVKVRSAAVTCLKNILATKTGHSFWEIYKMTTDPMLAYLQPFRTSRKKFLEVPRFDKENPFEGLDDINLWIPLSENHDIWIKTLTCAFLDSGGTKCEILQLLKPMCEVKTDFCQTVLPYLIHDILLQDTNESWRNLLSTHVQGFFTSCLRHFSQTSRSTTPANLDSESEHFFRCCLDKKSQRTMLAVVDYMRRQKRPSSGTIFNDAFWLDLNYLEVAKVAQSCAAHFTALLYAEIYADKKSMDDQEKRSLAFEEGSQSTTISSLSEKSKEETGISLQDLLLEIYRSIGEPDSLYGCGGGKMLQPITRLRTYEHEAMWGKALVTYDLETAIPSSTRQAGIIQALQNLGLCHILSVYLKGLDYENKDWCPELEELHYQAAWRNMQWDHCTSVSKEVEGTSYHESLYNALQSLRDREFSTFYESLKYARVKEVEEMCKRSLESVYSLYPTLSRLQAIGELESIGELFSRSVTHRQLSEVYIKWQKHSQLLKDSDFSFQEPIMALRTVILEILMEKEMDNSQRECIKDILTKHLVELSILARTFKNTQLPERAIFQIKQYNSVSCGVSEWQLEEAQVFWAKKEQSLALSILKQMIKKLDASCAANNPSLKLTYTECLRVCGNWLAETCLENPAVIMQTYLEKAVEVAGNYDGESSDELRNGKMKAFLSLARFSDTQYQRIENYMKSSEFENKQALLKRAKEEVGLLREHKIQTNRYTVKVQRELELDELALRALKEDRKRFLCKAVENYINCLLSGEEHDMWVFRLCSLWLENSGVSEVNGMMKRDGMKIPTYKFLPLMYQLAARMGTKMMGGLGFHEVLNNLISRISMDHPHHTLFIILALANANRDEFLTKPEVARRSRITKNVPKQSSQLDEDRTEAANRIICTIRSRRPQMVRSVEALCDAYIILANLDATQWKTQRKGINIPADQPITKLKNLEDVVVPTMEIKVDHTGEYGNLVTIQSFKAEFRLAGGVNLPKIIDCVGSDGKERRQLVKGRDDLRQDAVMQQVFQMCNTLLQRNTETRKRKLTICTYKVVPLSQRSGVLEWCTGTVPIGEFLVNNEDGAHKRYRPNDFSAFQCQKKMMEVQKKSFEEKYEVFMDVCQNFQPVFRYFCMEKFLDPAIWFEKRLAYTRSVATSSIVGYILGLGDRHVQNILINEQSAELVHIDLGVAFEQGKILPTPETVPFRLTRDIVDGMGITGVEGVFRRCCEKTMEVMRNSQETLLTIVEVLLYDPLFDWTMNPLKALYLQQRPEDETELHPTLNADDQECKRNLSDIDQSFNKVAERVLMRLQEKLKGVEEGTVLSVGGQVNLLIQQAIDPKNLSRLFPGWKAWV

| SMILES | IC50 |
| --- | --- |
| CN(C)CCCOc1ncc(-c2ccc3ncc4c(c3c2)C2(CCC2)C(=O)N4C)cc1NS(=O)(=O)c1ccc(OC(F)(F)F)cc1 [Example 143, N-(2-(3-(Dimethylamino)propoxy)-5-(3′-methyl-2′-oxo-2′,3′-dihydrospiro[cyclobulane-1,1′-pyrrolo[2,3-c]quinolin]-8′-yl)pyridin-3-yl)-4-(trifluoromethoxy)benzenesulfonamide hydrochloride] | 1 to 100 nM |
| Cc1ccc(S(=O)(=O)N(C)c2cc(-c3ccc4ncc5c(c4c3)C3(CCC3)C(=O)N5C)cnc2OCCCN2CCCCC2)cn1 [Example 191, N,6-Dimethyl-N-(5-(3′-methyl-2′-oxo-2′,3′-dihydrospiro [cyclobulane-1,1′-pyrrolo[2,3-c]quinolin]-8′-yl)-2-(3-(piperidin-1-yl)propoxy)pyridin-3-yl)pyridine-3-sulfonamide 2,2,2-trifluoroacetate] | > 100 nM |
| COc1ncc(-c2ccc3ncc4c(c3c2)C2(CC2)C(=O)N4C)cc1CS(=O)(=O)c1ccc(C)nc1 [Example 209, 8′-(6-Methoxy-5-(((6-methylpyridin-3-yl)sulfonyl)methyl)pyridin-3-yl)-3′-methylspiro[cyclopropane-1,1′-pyrrolo[2,3-c]quinolin]-2′(3′-H)-one] | > 100 nM |
| Cc1ccc(S(=O)(=O)Nc2cc(-c3ccc4ncc5c(c4c3)C3(CCC3)C(=O)N5C)cnc2OCCCN2C(C)(C)CCCC2(C)C)cn1 [Example 211, 6-Methyl-N-(5-(3′-methyl-2′-oxo-2′,3′-dihydrospiro[cyclobulane-1,1′-pyrrolo[2,3-c]quinolin]-8′-yl)-2-(3-(2,2,6,6-tetramethylpiperidin-1-yl)propoxy)pyridin-3-yl)pyridine-3-sulfonamide] | > 100 nM |
| [2H]C([2H])(COc1ncc(-c2ccc3ncc4c(c3c2)C2(CCC2)C(=O)N4C)cc1NS(=O)(=O)c1ccc(C)nc1)CN1CCCCC1 [Example 219, 6-Methyl-N-(5-(3′-methyl-2′-oxo-2′,3′-dihydrospiro[cyclobulane-1,1′-pyrrolo[2,3-c]quinolin]-8′-yl)-2-(3-(piperidin-1-yl)propoxy-2,2-d2)pyridin-3-yl)pyridine-3-sulfonamide] | > 100 nM |
| CN1C(=O)C2(CCC2)c2c1cnc1ccc(-c3cnc(OCCCO)c(NS(C)(=O)=O)c3)cc21 [Example 254, N-(2-(3-Hydroxypropoxy)-5-(3′-methyl-2′-oxo-2′,3′-dihydrospiro[cyclobutane-1,1′-pyrrolo[2,3-c]quinolin]-8′-yl)pyridin-3-yl)methanesulfonamide] | > 100 nM |
| CN1C(=O)C2(CCC2)c2c1cnc1ccc(-c3cnc(OCC(F)(F)CN4CCCCC4)c(NS(C)(=O)=O)c3)cc21 [Example 256, N-(2-(2,2-Difluoro-3-(piperidin-1-yl)propoxy)-5-(3′-methyl-2′-oxo-2′,3′-dihydrospiro[cyclobutane-1,1′-pyrrolo[2,3-c]quinolin]-8′-yl)pyridin-3-yl)methanesulfonamide] | > 100 nM |
| CN(C)CCCOc1ncc(-c2ccc3ncc4c(c3c2)C2(CC(=O)C2)C(=O)N4C)cc1NS(C)(=O)=O [Example 258, N-(2-(3-(Dimethylamino)propoxy)-5-(3′-methyl-2′,3′-dioxo-2′,3′-dihydrospiro [cyclobutane-1,1′-pyrrolo[2,3-c]quinolin]-8′-yl)pyridin-3-yl)methanesulfonamide] | 1 to 100 nM |

Now from value to compound:

| IC50 | SMILES |
| --- | --- |
| 1 to 100 nM | CN1C(=O)C2(CC2)c2c1cnc1ccc(-c3cnc(OCCC[N+](C)(C)[O-])c(NS(=O)(=O)c4ccccc4)c3)cc21 [Example 140, N,N-Dimethyl-3-((5-(3′-methyl-2′-oxo-2′,3′-dihydrospiro[cyclopropane-1,1′-pyrrolo[2,3-c]quinolin]-8′-yl)-3-(phenylsulfonamido)pyridin-2-yl)oxy)propan-1-amine oxide] |
| 1 to 100 nM | Cc1ccc(S(=O)(=O)Nc2cc(-c3ccc4ncc5c(c4c3)C3(CCC3)C(=O)N5C)cnc2OCCCN2CCC(F)(F)CC2)cc1 [Example 152, hydrochloride] |
| 1 to 100 nM | CN(C)CCCOc1ncc(-c2ccc3ncc4c(c3c2)C2(CCC2)C(=O)N4C)cc1NS(=O)(=O)c1cc[nH]c(=O)c1 [Example 161, N-(2-(3-(Dimethylamino)propoxy)-5-(3′-methyl-2′-oxo-2′,3′-dihydrospiro[cyclobulane-1,1′-pyrrolo[2,3-c]quinolin]-8′-yl)pyridin-3-yl)-2-oxo-1,2-dihydropyridine-4-sulfonamide] |
| 1 to 100 nM | CN(C)CCCOc1ncc(-c2ccc3ncc4c(c3c2)C2(CCC2)C(=O)N4C)cc1NS(=O)(=O)c1cncc(C#N)c1 [Example 174, 5-Cyano-N-(2-(3-(dimethylamino)propoxy)-5-(3′-methyl-2′-oxo-2′,3′-dihydrospiro[cyclobulane-1,1′-pyrrolo[2,3-c]quinolin]-8′-yl)pyridin-3-yl)pyridine-3-sulfonamide hydrochloride] |
| 1 to 100 nM | CCCCN(C)S(=O)(=O)Nc1cc(-c2ccc3ncc4c(c3c2)C2(CCC2)C(=O)N4C)cnc1OCCCN(C)C [Example 176] |
| 1 to 100 nM | CN(C)CCCOc1ncc(-c2ccc3ncc4c(c3c2)C2(CCC2)C(=O)N4C)cc1NS(=O)(=O)N(C)C1CCNCC1 [Example 179, N-Methyl-N-(piperidin-4-yl)({2-[3-(dimethylamino)propoxy]-5-{3′-methyl-2′-oxo-2′,3′-dihydrospiro[cyclobutane-1,1′-pyrrolo[2,3-c]quinoline]-8-yl}pyridin-3-yl}amino)sulfonamide 2,2,2-trifluoroacetate] |
| 1 to 100 nM | CN(C)CCCOc1ncc(-c2ccc3ncc4c(c3c2)C2(CCC2)C(=O)N4C)cc1NS(=O)(=O)N(C)Cc1ccccc1 [Example 182, N-Benzyl-N-methyl({2-[3-(dimethylamino)propoxy]-5-{3′-methyl-2′-oxo-2′,3′-dihydrospiro[cyclobulane-1,1′-pyrrolo[2,3-c]quinoline]-8′-yl}pyridin-3-yl}amino)sulfonamide] |
| 1 to 100 nM | Cc1ccc(S(=O)(=O)Nc2cc(-c3ccc4ncc5c(c4c3)C3(CCC3)C(=O)N5C)cnc2OCCCN2C(C)CCCC2C)cn1 (stereo not shown) [Example 210, N-(2-(3-(2,6-Dimethylpiperidin-1-yl)propoxy)-5-(3′-methyl-2′-oxo-2′,3′-dihydrospiro[cyclobutane-1,1′-pyrrolo[2,3-c]quinolin]-8′-yl)pyridin-3-yl)-6-methylpyridine-3-sulfonamide] |
| 1 to 100 nM | CN(CCCOc1ncc(-c2ccc3ncc4c(c3c2)C2(CCC2)C(=O)N4C)cc1NS(C)(=O)=O)CC(F)(F)F [Example 231] |
| 1 to 100 nM | CN(C)CCCOc1ncc(-c2ccc3ncc4c(c3c2)C2(CCC2)C(=O)N4C)cc1S(=O)(=O)N(C)C [Example 234, 2-(3-(Dimethylamino)propoxy)-N,N-dimethyl-5-(3′-methyl-2′-oxo-2′,3′-dihydrospiro[cyclobutane-1,1′-pyrrolo[2,3-c]quinolin]-8′-yl)pyridine-3-sulfonamide] |
| 1 to 100 nM | CN(C)CCCOc1ncc(-c2ccc3ncc4c(c3c2)C2(CCC2)C(=O)N4C)cc1S(N)(=O)=O [Example 255, 2-(3-(Dimethylamino)propoxy)-5-(3′-methyl-2′-oxo-2′,3′-dihydrospiro[cyclobutane-1,1′-pyrrolo[2,3-c]quinolin]-8′-yl)pyridine-3-sulfonamide] |
